Consider one molecule from patent US11274332B2, “Methods of administering 3,4-diaminopyridine” (SERB SA, priority 2011, dated 2022).

In this data set the test system is rat hepatocytes. As to the kind of experiment: In vitro metabolism of 14C-amifampridine in rat hepatocytes (Example 1). The data set is classed as in vitro ADME. Here is the method:
The objective of this hepatocyte study was to determine the extent of metabolism, complete metabolic profile and metabolite characterization of amifampridine phosphate in several species with ^14C-amifampridine phosphate for a cross species comparison. The following procedures were used to study the metabolism in rat (Example 1), dog (Example 2), and human hepatocytes (Example 3).
The cryopreserved hepatocytes were removed from storage, quickly thawed in a 37° C. water bath for 1 to 2 min, and transferred to a 50 ml tube containing pre-warmed InVitroGRO HT medium (Celsis Inc., Baltimore). The cell suspension was mixed by gentle inversion and the cells were pelleted by centrifugation at 50 to 75×g for 5 min. The supernatant medium was removed and the cells were resuspended in Williams' Medium E. Hepatocyte viability was assessed by using trypan blue exclusion. Hepatocyte density was determined by counting cells with a hemocytometer and the density was adjusted with Williams' Medium E to achieve a final density of 1,000,000 cells/mL. […] The supernatant medium was removed and the cells were resuspended in cold Williams' Medium E. The cell density was then determined using a hemocytometer and the density was adjusted with Williams' Medium E to achieve a final density of 1,000,000 cells/mL. […]

Regarding `Nc1ccncc1N` [3,4-DAP, 3,4-diaminopyridine], the “formation of single major acetylated amifampridine metabolite” value is on record as “extensive”.
